In patent US7344884B2, “Peptides promoting cell adherence, growth and secretion” (Becton, Dickinson and Company, priority 2001, dated 2008):
Marks after values point to notes of the source that are not given here.

Test system: MC3T3 cells
Assay: Oxygen biosensor assay of adherence and growth of MC3T3 cells on peptide-coated wells
Type: cell-based, murine
Settings: for Abs at 590 nm (relative oxygen consumption), Controls / relative oxygen consumption (Absorbance at 590 nm) / Abs at 590 nm (relative oxygen consumption), MDL-400 Library: 86 hour time point; for Abs at 590 nm (relative oxygen consumption), Controls: 25 µl stock of ECM or known peptide control dried in well, same plate; for Abs at 590 nm (relative oxygen consumption), MDL-400 Library: single peptide, 50 µl of 1 mM stock dried in well, value normalized to the well's initial reading; for impact on MC3T3 growth (result in words): peptide or control adsorbed to surface, compared with uncoated surface or controls
Protocol: To identify peptides in a particular library which positively affected cell growth in cell culture, the library was screened in a growth assay. The selected cells were anchorage-dependent MC3T3 cells, which were grown on tissue culture surfaces which had been pre-coated with peptides of the present invention. The screening medium used to evaluate peptides in the library was a low serum medium allowing evaluation of peptide effects with low interference from undefined materials present in the medium. In the present work, growth of MC3T3 cells was assessed in the presence and absence of the peptides in the library which were present in the form of a dried film on a tissue culture substrate. Growth was evaluated in a basal medium rich in amino acids and containing the necessary vitamins, metals and simple carbon source. After an appropriate incubation time, growth of each peptide-supplemented culture is compared to growth of the unsupplemented culture. The extent of growth was evaluated using a Becton Dickinson oxygen sensor to detect oxygen consumption by the cells. The cell number in each well containing a particular peptide was then assessed indirectly with a flurometer which measured fluorescence generated from a fluoroescent dye using band-pass filters of 465 nm for excitation and 590 nm for emission.
Briefly, the oxygen biosensor is based upon the fluoroscence of ruthenium dye which is quenched in the presence of oxygen. The dye is immobilized within an inert but highly permeable silicone matrix located at the bottom of microtiter wells. […] (Wodnicka, M., Guarino, R. D., Hemperly, J. J. Temmins, M. R., Stitt, D. and Pitner, J. B. (2000) J. of Biomolecular Screening 5:141-152)
MC3T3-E1 is a clonal line of murine calvaria-derived osteoblast (establishement of a clonal osteogenic Cell Line from Newborn Mouse Calvaria in Jpn J. Oral Biol 23, 899 (1981)).
MC3T3 cells were maintained in αMEM (GIBCO Catalog No: 12561) supplemented with 2% fetal calf serum (FCS, inactivated) and 100 units or μg/ml of penicillin/streptomycin for one month prior to use. Cells were routinely seeded at a density of approximately 1×10^4 cells per 20 ml culture media which was placed in a 250 ml canted neck polystyrene tissue culture treated flask (Becton Dickinson). Cells were cultured until approximately 2×10^6 cells were obtainable from each flask, which were resuspended in 5 ml of αMEM with 2% FCS for a final cell concentration of about 5×10^4 cells per 150 μl for peptide screening.
For determining the biological effects of library peptides and appropriate controls on MC3T3 cells, cells (5×10^4/150 μl) were grown in an 96 well oxygen sensor plate treated as described below:
Peptides for screening were obtained from either a MDL-400 library or an MDL-100 library. Fifty microliters of peptides at a 1 mM stock concentration in phosphate buffered saline were placed in wells of a 96 well oxygen sensor plate and dried in a reverse flow air hood overnight […].
Vitrogen-collagen-I was obtained from Cohesion (Palo Alto, Calif., Catalog No. FXP-019) and fibronectin was obtained from Sigma (Catalog No. F-0895). All other extracellular matrix (ECM) compounds were obtained from Becton Dickinson Labware, (Bedford, Mass.). Polylysine was obtained from Becton Dickinson Labware and RGDSP-rhodamine was from AnaSpec Inc. (San Jose, Calif.). Extracellular matrix components (ECM) or known peptides were used at the following stock concentrations:
Twenty-five microliters of stock concentrations of controls and 25 μl of phosphate buffered saline were placed in wells of a 96 well oxygen sensor plate and dried overnight as described above.
Cells grown on 96 well oxygen sensor plates treated as described above were monitored for growth using a Becton Dickinson oxygen biosensor. Growth was monitored at the following time points: 1 hours, 24 hours, 32 hours, 48 hours and 86 hours. Media was changed every three days. […]

| Molecule | Abs at 590 nm (relative oxygen consumption), Controls | Abs at 590 nm (relative oxygen consumption), MDL-400 Library | impact on MC3T3 growth (result in words) | also measured |
| --- | --- | --- | --- | --- |
| RGDSP-rhodamine [reference compound] | 1.25 |  |  |  |
| AFKIF (Synthetic peptide selected for biological activity) [SEQ ID NO:9] |  | 2.78* | significant difference in growth | relative oxygen consumption (Absorbance at 590 nm): 2.78 |
| AFFKI (Synthetic peptide selected for biological activity) [SEQ ID NO:6] |  | 2.01* | significant difference in growth |  |
| Laminin [reference compound] | 2.65 |  |  | relative oxygen consumption (Absorbance at 590 nm): 2.65 |
| Collagen-V: extracellular matrix (ECM) control from Becton Dickinson Labware [reference compound] | 1.76 |  |  |  |
| Fibronectin [reference compound] | 2.12 |  |  |  |
| KFAFI (Synthetic peptide selected for biological activity) [SEQ ID NO:10] |  | 2.11* | significant difference in growth |  |
| IFFKG (Synthetic peptide selected for biological activity) [SEQ ID NO:1] |  | 2.53* | significant difference in growth | relative oxygen consumption (Absorbance at 590 nm): 2.53; impact on MC3T3 growth (result in words) (listed as IFFKG): positive |
| Collagen-IV: extracellular matrix (ECM) control from Becton Dickinson Labware [reference compound] | 3.14 |  |  | relative oxygen consumption (Absorbance at 590 nm): 3.14 |
| VFPFK (Synthetic peptide selected for biological activity) [SEQ ID NO:7] |  | 2.06* | significant difference in growth |  |
| FIKFG (Synthetic peptide selected for biological activity) [SEQ ID NO:2] |  | 2.38* | significant difference in growth | impact on MC3T3 growth (result in words) (listed as FIKFG): positive |
| AKIFF (Synthetic peptide selected for biological activity) [SEQ ID NO:8] |  | 2.08* | significant difference in growth |  |
| FAKFI (Synthetic peptide selected for biological activity) [SEQ ID NO:11] |  | 2.06* | significant difference in growth |  |
| QVVAK (Synthetic peptide selected for biological activity) [SEQ ID NO:4] |  | 2.11* | significant difference in growth |  |
| Polylysine [reference compound] | 1.08 |  |  |  |
| FIFAK (Synthetic peptide selected for biological activity) [SEQ ID NO:3] |  | 2.08* | significant difference in growth |  |
| Collagen-III: extracellular matrix (ECM) control from Becton Dickinson Labware (protein, UniProt P02461 154-1221, looked up) Collagen alpha-1(III) chain: QYDSYDVKSGVAVGGLAGYPGPAGPPGPPGPPGTSGHPGSPGSPGYQGPPGEPGQAGPSGPPGPPGAIGPSGPAGKDGESGRPGRPGERGLPGPPGIKGPAGIPGFPGMKGHRGFDGRNGEKGETGAPGLKGENGLPGENGAPGPMGPRGAPGERGRPGLPGAAGARGNDGARGSDGQPGPPGPPGTAGFPGSPGAKGEVGPAGSPGSNGAPGQRGEPGPQGHAGAQGPPGPPGINGSPGGKGEMGPAGIPGAPGLMGARGPPGPAGANGAPGLRGGAGEPGKNGAKGEPGPRGERGEAGIPGVPGAKGEDGKDGSPGEPGANGLPGAAGERGAPGFRGPAGPNGIPGEKGPAGERGAPGPAGPRGAAGEPGRDGVPGGPGMRGMPGSPGGPGSDGKPGPPGSQGESGRPGPPGPSGPRGQPGVMGFPGPKGNDGAPGKNGERGGPGGPGPQGPPGKNGETGPQGPPGPTGPGGDKGDTGPPGPQGLQGLPGTGGPPGENGKPGEPGPKGDAGAPGAPGGKGDAGAPGERGPPGLAGAPGLRGGAGPPGPEGGKGAAGPPGPPGAAGTPGLQGMPGERGGLGSPGPKGDKGEPGGPGADGVPGKDGPRGPTGPIGPPGPAGQPGDKGEGGAPGLPGIAGPRGSPGERGETGPPGPAGFPGAPGQNGEPGGKGERGAPGEKGEGGPPGVAGPPGGSGPAGPPGPQGVKGERGSPGGPGAAGFPGARGLPGPPGSNGNPGPPGPSGSPGKDGPPGPAGNTGAPGSPGVSGPKGDAGQPGEKGSPGAQGPPGAPGPLGIAGITGARGLAGPPGMPGPRGSPGPQGVKGESGKPGANGLSGERGPPGPQGLPGLAGTAGEPGRDGNPGSDGLPGRDGSPGGKGDRGENGSPGAPGAPGHPGPPGPVGPAGKSGDRGESGPAGPAGAPGPAGSRGAPGPQGPRGDKGETGERGAAGIKGHRGFPGNPGAPGSPGPAGQQGAIGSPGPAGPRGPVGPSGPPGKDGTSGHPGPIGPPGPRGNRGERGSEGSPGHPGQPGPPGPPGAPGPCCGGVGAAAIAGIGGEKAGGFAPYYG | 1.45 |  |  |  |
